Measured values taken from PubChem BioAssay (NCI).
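A five-concentration, 48-hour dose response in 96-well plates underlies each endpoint, interpolated linearly between surrounding concentrations. GI50 marks 50% less growth. TGI: concentration producing complete growth inhibition.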

Experiments:
Test in all cases: growth of human tumour cells (NCI), 48 h
RXF 393 renal = tested on: RXF 393 renal
HCT-116 colon = tested on: HCT-116 colon
HOP-62 NSCLC = tested on: HOP-62 NSCLC
OVCAR-8 ovarian = tested on: OVCAR-8 ovarian
LOX IMVI melanoma = tested on: LOX IMVI melanoma
MDA-MB-231 breast = tested on: MDA-MB-231 breast
MALME-3M melanoma = tested on: MALME-3M melanoma
RPMI-8226 leukemia = tested on: RPMI-8226 leukemia
SF-539 CNS = tested on: SF-539 CNS
U251 CNS = tested on: U251 CNS
TK-10 renal = tested on: TK-10 renal
SN12C renal = tested on: SN12C renal
NCI-H226 lung = tested on: NCI-H226 lung
EKVX NSCLC = tested on: EKVX NSCLC
ACHN renal = tested on: ACHN renal
SK-OV-3 ovarian = tested on: SK-OV-3 ovarian
A549 NSCLC = tested on: A549 NSCLC
HCC-2998 colon = tested on: HCC-2998 colon
UO-31 renal = tested on: UO-31 renal
SW-620 colon = tested on: SW-620 colon
MCF7 breast = tested on: MCF7 breast
MOLT-4 leukemia = tested on: MOLT-4 leukemia
IGROV1 ovarian = tested on: IGROV1 ovarian
SNB-19 CNS = tested on: SNB-19 CNS
SF-295 CNS = tested on: SF-295 CNS
HL-60(TB) leukemia = tested on: HL-60(TB) leukemia
CCRF-CEM leukemia = tested on: CCRF-CEM leukemia
NCI/ADR-RES ovarian = tested on: NCI/ADR-RES ovarian
KM12 colon = tested on: KM12 colon
M14 melanoma = tested on: M14 melanoma

Compound: Cn1cc(-c2cc(N)n3nc(-c4c[nH]c5ccccc45)cc3n2)c2cc(Cl)ccc21
- GI50 (RXF 393 renal): 2.47 µM
- TGI (RXF 393 renal): 8.46 µM
- GI50 (HCT-116 colon): 1.84 µM
- TGI (HCT-116 colon): 3.5 µM
- GI50 (HOP-62 NSCLC): 2.84 µM
- TGI (HOP-62 NSCLC): 10.8 µM
- GI50 (OVCAR-8 ovarian): 3.53 µM
- TGI (OVCAR-8 ovarian): 14.2 µM
- GI50 (LOX IMVI melanoma): 1.71 µM
- TGI (LOX IMVI melanoma): 3.08 µM
- GI50 (MDA-MB-231 breast): 1.9 µM
- TGI (MDA-MB-231 breast): 3.61 µM
- GI50 (MALME-3M melanoma): 3.93 µM
- TGI (MALME-3M melanoma): 14.3 µM
- GI50 (RPMI-8226 leukemia): 3.42 µM
- TGI (RPMI-8226 leukemia): 29 µM
- GI50 (SF-539 CNS): 1.81 µM
- TGI (SF-539 CNS): 3.66 µM
- GI50 (U251 CNS): 2.01 µM
- TGI (U251 CNS): 4.44 µM
- GI50 (TK-10 renal): 4.34 µM
- TGI (TK-10 renal): 15.7 µM
- GI50 (SN12C renal): 5.3 µM
- TGI (SN12C renal): 18.8 µM
- GI50 (NCI-H226 lung): 14.1 µM
- TGI (NCI-H226 lung): 47.1 µM
- GI50 (EKVX NSCLC): 2.8 µM
- TGI (EKVX NSCLC): 12.5 µM
- GI50 (ACHN renal): 2.98 µM
- TGI (ACHN renal): 10.6 µM
- GI50 (SK-OV-3 ovarian): 15.9 µM
- TGI (SK-OV-3 ovarian): 43 µM
- GI50 (A549 NSCLC): 3.15 µM
- TGI (A549 NSCLC): 13 µM
- GI50 (HCC-2998 colon): 1.8 µM
- TGI (HCC-2998 colon): 3.41 µM
- GI50 (UO-31 renal): 4.22 µM
- TGI (UO-31 renal): 16.9 µM
- GI50 (SW-620 colon): 2 µM
- TGI (SW-620 colon): 3.92 µM
- GI50 (MCF7 breast): 1.65 µM
- TGI (MCF7 breast): 3.58 µM
- GI50 (MOLT-4 leukemia): 1.87 µM
- TGI (MOLT-4 leukemia): 5.24 µM
- GI50 (IGROV1 ovarian): 3.61 µM
- TGI (IGROV1 ovarian): 14.6 µM
- GI50 (SNB-19 CNS): 4.32 µM
- TGI (SNB-19 CNS): 16.3 µM
- GI50 (SF-295 CNS): 1.87 µM
- TGI (SF-295 CNS): 3.79 µM
- GI50 (HL-60(TB) leukemia): 2.91 µM
- TGI (HL-60(TB) leukemia): 13.7 µM
- GI50 (CCRF-CEM leukemia): 3.22 µM
- TGI (CCRF-CEM leukemia): > 100 µM
- GI50 (NCI/ADR-RES ovarian): 2.85 µM
- TGI (NCI/ADR-RES ovarian): 9.09 µM
- GI50 (KM12 colon): 2.55 µM
- TGI (KM12 colon): 6.63 µM
- GI50 (M14 melanoma): 2.15 µM
